In general, IC50 refers to the concentration that inhibits the measured activity by half. Read a high IC50 as a need for much substance. Usually inhibition stands for the drop in the measured response relative to a control, in per cent. A low value points to little suppression.

The subject of experiment [1] is A375 cells. Kind of experiment: Inhibition of cancer cell growth, MTT or MTS assay, A375. It is filed as cell-based. Particulars: Homo sapiens, A-375, 72 h incubation. How it is done: (§1) Inhibition of cell growth by compounds was measured using MTT or MTS assay. Tumor cell lines were purchased from ATCC (American Type Culture Collection, Manassas, Va.). All cell lines were maintained in RPMI 1640 (Hyclone) supplemented with 10% fetal bovine serum (FBS, Hyclone), glutamine (2 mM, Hyclone), and antibiotics (penicillin 100 U/mL and streptomycin 50 μg/mL) at 37° C. in a humidified atmosphere of 5% CO2 in air. Taxol (as a positive control, Sigma) and compounds were dissolved in DMSO (Sigma), and the final concentration of DMSO in the medium was 1%. Tumor cells were plated in 96-well plates at densities of about 2000 (A375) or 4000 (A549 and Colo205) cells/well of a 96-well plate and allowed to adhere/grow for 24 h. They were then treated with various concentrations of drug and incubated for 72 h. For MTT method, medium was then removed by inverting and tapping the plates. 100 μL of MTT (0.5 mg/ml) was added to each well followed by an incubated at 37° C. for 4 h. MTT was then removed and 200 μL of DMSO was added to each well, and the ODs at 570 nm were measured after a 5 second shaking cycle in a 96-well spectrophotometer. For MTS method, 20 μL MTS (CellTiter 96 Aqueous One Solution, Promega) was added to each well followed by an incubated at 37° C. for 2-4 h, solutions were then directly put in a 96-well spectrophotometer, and the ODs at 490 nm were measured.
(§2) All concentrations of compounds were tested in triplicate and controls were averaged over 4 wells. IC50 was calculated by plotting the concentration of compound vs the percentage of inhibition in treated wells using GraphPad Prism 5. […] The scale utilized in Tables 7-9 is as follows: +++ less than 1000 nM; ++ between 1000 nM and 5000 nM; and + greater than 5000 nM. The scale utilized in […]
(Tetrazolium dyes change colour on reduction, which living cells bring about.)

Experiment [2] deals with T1, BRAF V600E (Homo sapiens, UniProt P15056, V600E).
T1 construct: purchased Invitrogen
T1 sequence (P15056 whole entry V600E): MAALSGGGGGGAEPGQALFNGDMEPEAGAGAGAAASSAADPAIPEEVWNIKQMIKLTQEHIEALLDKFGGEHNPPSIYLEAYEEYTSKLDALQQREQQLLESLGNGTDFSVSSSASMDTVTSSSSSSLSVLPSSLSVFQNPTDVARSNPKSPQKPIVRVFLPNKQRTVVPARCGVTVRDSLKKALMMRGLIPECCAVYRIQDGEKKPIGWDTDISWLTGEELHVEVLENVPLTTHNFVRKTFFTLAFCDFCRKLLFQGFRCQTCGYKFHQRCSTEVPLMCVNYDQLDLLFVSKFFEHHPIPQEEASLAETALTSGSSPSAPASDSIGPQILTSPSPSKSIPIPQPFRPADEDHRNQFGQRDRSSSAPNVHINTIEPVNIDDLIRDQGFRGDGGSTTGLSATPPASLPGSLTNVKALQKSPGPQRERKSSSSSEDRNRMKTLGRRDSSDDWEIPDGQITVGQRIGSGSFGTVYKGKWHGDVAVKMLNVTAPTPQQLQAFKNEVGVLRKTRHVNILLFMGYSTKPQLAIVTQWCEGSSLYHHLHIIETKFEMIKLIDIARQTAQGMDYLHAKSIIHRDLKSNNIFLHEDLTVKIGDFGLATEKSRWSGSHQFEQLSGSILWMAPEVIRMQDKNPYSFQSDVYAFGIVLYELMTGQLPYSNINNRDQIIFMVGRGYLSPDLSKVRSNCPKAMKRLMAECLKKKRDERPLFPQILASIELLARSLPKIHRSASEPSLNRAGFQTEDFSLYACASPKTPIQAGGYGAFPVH
Kind of experiment: Z'-LYTE kinase inhibition assay against BRAF V600E. Type of experiment: biochemical. To be noted: % inhibition at 1 μM, Z'-LYTE method. How it is done:
Inhibitory activities Inhibitory activities of compounds against BRAF, and BRAF V600E were measured by Invitrogen using Z′-LYTE® Method as briefly described in the following. 4× Test compounds are dissolved in 1% DMSO. […] ATP solutions are diluted to a 4×ATP working concentration in Kinase Buffer (50 mM HEPES pH 7.5, 0.01% BRIJ-35, 10 mM MgCl2, 1 mM EGTA). Reaction started by 30-second shaking of mixture consisting of 2.5 μL 4× test compound, […] and 2.5 μL 4×ATP Solution on Bar-coded Corning, low volume NBS, black 384-well plate (Corning Cat. #3676). Then the mixture was incubated for 60-minute at room temperature for the kinase reaction, followed by addition of 5 μL of a 1:1024 dilution of development reagent A and 30-second plate shake. The mixture was then incubated for another 60-minute at room temperature for development reaction. Fluorescence was read by plate reader. IC50 was calculated by plotting the concentration of compound vs the percentage of inhibition in treated wells using GraphPad Prism 5.
Table 2 and 3 show % inhibition at 1 μM of several compounds of the invention against BRAF and BRAF V600E, respectively, using Z′-LYTE® method.
The scale utilized in Table 4 is as follows: +++ less than 100 nM; and ++ greater than 100 nM.

Experiment [3] deals with T2, KDR (VEGFR2) (Homo sapiens, UniProt P35968).
T2 construct: purchased Invitrogen
T2 sequence (P35968 20-1356): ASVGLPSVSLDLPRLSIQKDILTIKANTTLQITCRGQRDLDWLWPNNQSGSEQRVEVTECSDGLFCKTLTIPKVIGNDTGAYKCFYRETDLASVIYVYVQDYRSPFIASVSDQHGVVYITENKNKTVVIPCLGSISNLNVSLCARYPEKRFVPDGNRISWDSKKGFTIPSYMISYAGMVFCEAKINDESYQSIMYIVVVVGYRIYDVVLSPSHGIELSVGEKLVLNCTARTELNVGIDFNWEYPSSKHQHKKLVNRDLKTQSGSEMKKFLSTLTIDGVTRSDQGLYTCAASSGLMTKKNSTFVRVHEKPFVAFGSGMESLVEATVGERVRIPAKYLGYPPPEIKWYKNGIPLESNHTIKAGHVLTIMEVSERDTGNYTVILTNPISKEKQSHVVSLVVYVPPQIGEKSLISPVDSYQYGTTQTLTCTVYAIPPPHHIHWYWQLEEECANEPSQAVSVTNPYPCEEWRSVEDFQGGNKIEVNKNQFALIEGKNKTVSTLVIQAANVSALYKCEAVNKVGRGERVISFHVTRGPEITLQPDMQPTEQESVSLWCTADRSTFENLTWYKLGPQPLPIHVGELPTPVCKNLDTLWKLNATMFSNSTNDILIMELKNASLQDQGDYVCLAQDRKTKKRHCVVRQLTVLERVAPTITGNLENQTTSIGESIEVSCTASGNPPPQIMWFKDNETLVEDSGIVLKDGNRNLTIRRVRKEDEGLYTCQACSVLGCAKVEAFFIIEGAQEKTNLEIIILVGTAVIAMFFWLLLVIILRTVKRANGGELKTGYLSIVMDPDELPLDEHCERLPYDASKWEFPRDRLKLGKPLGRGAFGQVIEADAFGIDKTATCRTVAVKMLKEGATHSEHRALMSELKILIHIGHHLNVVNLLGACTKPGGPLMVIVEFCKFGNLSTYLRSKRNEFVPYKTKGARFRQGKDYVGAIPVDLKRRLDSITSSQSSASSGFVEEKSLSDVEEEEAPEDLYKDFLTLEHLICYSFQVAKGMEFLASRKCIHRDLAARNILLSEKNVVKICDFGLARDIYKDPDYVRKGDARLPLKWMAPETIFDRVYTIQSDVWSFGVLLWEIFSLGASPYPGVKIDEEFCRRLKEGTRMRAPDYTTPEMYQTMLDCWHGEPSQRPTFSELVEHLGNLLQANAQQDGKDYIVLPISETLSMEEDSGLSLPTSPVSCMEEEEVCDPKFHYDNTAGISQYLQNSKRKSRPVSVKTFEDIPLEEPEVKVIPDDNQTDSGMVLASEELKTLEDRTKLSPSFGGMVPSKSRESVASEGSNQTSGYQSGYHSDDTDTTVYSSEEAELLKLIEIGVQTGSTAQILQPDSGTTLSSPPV
Kind of experiment: Z'-LYTE kinase inhibition assay against KDR. It is filed as biochemical. To be noted: % inhibition at 1 μM, Z'-LYTE method. How it is done: Inhibitory activities of compounds against KDR (VEGFR2) were also measured by Invitrogen using Z′-LYTE® Method as described above with the following modification. The 2×KDR (VEGFR2)/Tyr 01 mixture is prepared in 50 mM HEPES pH 7.5, 0.01% BRIJ-35, 10 mM MgCl2, 1 mM EGTA. The final 10 μL Kinase Reaction consists of 0.5-11.7 ng KDR (VEGFR2) and 2 μM Tyr 01 in 50 mM HEPES pH 7.5, 0.01% BRIJ-35, 10 mM MgCl2, 1 mM EGTA. After the 1 hour Kinase Reaction incubation, 5 μL of a 1:256 dilution of Development Reagent B is added.
The scale utilized in Table 6 is as follows: +++ less than 100 nM; and ++ greater than 100 nM

Experiment [4] relates to A549 cells. Kind of experiment: Inhibition of cancer cell growth, MTT or MTS assay, A549. It is filed as cell-based. Particulars: Homo sapiens, 72 h incubation. How it is done: as §1, §2

For the molecule `O=C(Nc1ccc(C(=O)c2ccc3ncc(N4CCOCC4)nc3c2)cc1)Nc1ccc(F)c(C(F)(F)F)c1` [Compound C06, 1-(4-fluoro-3-(trifluoromethyl)phenyl)-3-(4-(3-morpholinoquinoxaline-6-carbonyl)phenyl)urea], the IC50 in experiment [1] and in experiment [4] was 1 to 5 µM each time. Besides, the inhibition at 1 µM is less than 70% in experiment [2] and 70 to 89% in experiment [3].

On to `O=C(Nc1ccc(C(=O)c2ccc3ncc(N4CCOCC4)nc3c2)cc1)Nc1ccc(Cl)c(C(F)(F)F)c1` [Compound C07, 1-(4-chloro-3-(trifluoromethyl)phenyl)-3-(4-(3-morpholinoquinoxaline-6-carbonyl)phenyl)urea], for which the IC50 in experiment [1] and in experiment [4] was 1 to 5 µM throughout. Further, the inhibition at 1 µM in experiment [2] is less than 70%; in experiment [3], 70 to 89%.

With `O=C(Nc1ccc(C(=O)c2ccc3ncc(N4CCOCC4)nc3c2)cc1)Nc1ccc(C(F)(F)F)cc1` [Compound C08, 1-(4-(3-morpholinoquinoxaline-6-carbonyl)phenyl)-3-(4-(trifluoromethyl)phenyl)urea], the IC50 is less than 1 µM in experiment [1] and 1 to 5 µM in experiment [4]. For the same molecule, the inhibition at 1 µM in experiment [2] and in experiment [3] was less than 70% throughout.

Take `N#Cc1ccc(NC(=O)Nc2ccc(C(=O)c3ccc4ncc(N5CCOCC5)nc4c3)cc2)cc1C(F)(F)F` [Compound C15, 1-(4-cyano-3-(trifluoromethyl)phenyl)-3-(4-(3-morpholinoquinoxaline-6-carbonyl)phenyl)urea]: the IC50 in experiment [1] and in experiment [4] was 1 to 5 µM in each case. The inhibition at 1 µM is less than 70% in experiment [2] and 70 to 89% in experiment [3].

With `N#Cc1ccc(NC(=O)Nc2ccc(C(=O)c3ccc4ncc(N5CCOCC5)nc4c3)c(F)c2)cc1C(F)(F)F` [Compound C18, 1-(4-cyano-3-(trifluoromethyl)phenyl)-3-(3-fluoro-4-(3-morpholinoquinoxaline-6-carbonyl)phenyl)urea], the IC50 in experiment [1] and in experiment [4] was 1 to 5 µM in each case. Further, the inhibition at 1 µM in experiment [2] and in experiment [3] was 70 to 89% throughout.

Regarding `O=C(Nc1cccc(F)c1)Nc1ccc(C(=O)c2ccc3ncc(N4CCOCC4)nc3c2)c(F)c1` [Compound C22, 1-(3-fluoro-4-(3-morpholinoquinoxaline-6-carbonyl)phenyl)-3-(3-fluorophenyl)urea], the inhibition at 1 µM in experiment [2] and in experiment [3] was less than 70% each time. In experiment [4], this molecule registered an IC50 of more than 5 µM.

For the molecule `O=C(Nc1ccc(F)cc1)Nc1ccc(C(=O)c2ccc3ncc(N4CCOCC4)nc3c2)c(F)c1` [Compound C23, 1-(3-fluoro-4-(3-morpholinoquinoxaline-6-carbonyl)phenyl)-3-(4-fluorophenyl)urea], the inhibition at 1 µM is 70 to 89% in experiment [2] and less than 70% in experiment [3]. This molecule returned an IC50 in experiment [4] of more than 5 µM.

Turning to `O=C(Nc1ccc(C(=O)c2ccc3ncc(N4CCOCC4)nc3c2)c(F)c1)Nc1ccc(Cl)c(C(F)(F)F)c1` [Compound C25], the inhibition at 1 µM in experiment [2] and in experiment [3] was less than 70% each time. Further, the IC50 in experiment [4] was 1 to 5 µM.

Turning to `N#Cc1cnc2ccc(C(=O)c3ccc(NC(=O)Nc4ccc(Cl)c(C(F)(F)F)c4)cc3F)cc2n1` [Compound C30, 1-(4-chloro-3-(trifluoromethyl)phenyl)-3-(4-(3-cyanoquinoxaline-6-carbonyl)-3-fluorophenyl)urea], the inhibition at 1 µM in experiment [2] and in experiment [3] was less than 70% throughout. This molecule yielded an IC50 in experiment [4] of more than 5 µM.

For `Cn1cc(NC(=O)Nc2ccc(C(=O)c3ccc4ncc(N5CCNCC5)nc4c3)c(F)c2)cn1` [Compound C32, 1-(3-fluoro-4-(3-(piperazin-1-yl)quinoxaline-6-carbonyl)phenyl)-3-(1-methyl-1H-pyrazol-4-yl)urea], the results for the inhibition at 1 µM in experiment [2] and in experiment [3] were 70 to 89% and less than 70%, respectively.

As to `Cc1cc(NC(=O)Nc2ccc(C(=O)c3ccc4ncc(N5CCNCC5)nc4c3)c(F)c2)no1` [Compound C33, 1-(3-fluoro-4-(3-(piperazin-1-yl)quinoxaline-6-carbonyl)phenyl)-3-(5-methylisoxazol-3-yl)urea], the IC50 in experiment [1] lay in the range of 1 to 5 µM. Also, the inhibition at 1 µM in experiment [2] was more than 89%; in experiment [3], less than 70%.

Consider `O=C(Nc1ccc(C(=O)c2ccc3ncc(N4CCOCC4)nc3c2)c(F)c1)c1cccc(F)c1` [Compound C34, 3-fluoro-N-(3-fluoro-4-(3-morpholinoquinoxaline-6-carbonyl)phenyl)benzamide], for which, in experiment [1], the IC50 is more than 5 µM.

For the molecule `O=C(Nc1ccc(C(=O)c2ccc3ncc(N4CCOCC4)nc3c2)c(F)c1)c1ccc(Cl)cc1` [Compound C35, 4-chloro-N-(3-fluoro-4-(3-morpholinoquinoxaline-6-carbonyl)phenyl)benzamide], the IC50 in experiment [1] is more than 5 µM.

As for `O=C(Nc1ccc(C(=O)c2ccc3ncc(N4CCOCC4)nc3c2)c(F)c1)c1ccc(Cl)c(C(F)(F)F)c1` [Compound C36, 4-chloro-N-(3-fluoro-4-(3-morpholinoquinoxaline-6-carbonyl)phenyl)-3-(trifluoromethyl)benzamide], in experiment [1], the IC50 was more than 5 µM.

Molecule `O=C(Nc1ccc(C(=O)c2ccc3ncc(N4CCOCC4)nc3c2)c(F)c1)c1cccc(Cl)c1` [Compound C37, 3-chloro-N-(3-fluoro-4-(3-morpholinoquinoxaline-6-carbonyl)phenyl)benzamide] gave an IC50 in experiment [1] of more than 5 µM.

The molecule `O=C(Nc1ccc(C(=O)c2ccc3ncc(N4CCOCC4)nc3c2)c(F)c1)c1cccc(C(F)(F)F)c1` [Compound C38, N-(3-fluoro-4-(3-morpholinoquinoxaline-6-carbonyl)phenyl)-3-(trifluoromethyl)benzamide] registered an IC50 in experiment [1] of 1 to 5 µM.

With `O=C(Nc1ccc(C(=O)c2ccc3ncc(N4CCNCC4)nc3c2)c(F)c1)c1cccc(F)c1` [Compound C39, 3-fluoro-N-(3-fluoro-4-(3-(piperazin-1-yl)quinoxaline-6-carbonyl)phenyl)benzamide], the IC50 in experiment [1] was in the range of 1 to 5 µM.

For the molecule `O=C(Nc1ccc(C(=O)c2ccc3ncc(N4CCNCC4)nc3c2)c(F)c1)c1ccc(Cl)cc1` [Compound C40, 4-chloro-N-(3-fluoro-4-(3-(piperazin-1-yl)quinoxaline-6-carbonyl)phenyl)benzamide], the concentration for half-maximal inhibition (IC50) in experiment [1] was 1 to 5 µM.

The molecule `O=C(Nc1ccc(C(=O)c2ccc3ncc(N4CCNCC4)nc3c2)c(F)c1)c1cccc(Cl)c1` [Compound C41, 3-chloro-N-(3-fluoro-4-(3-(piperazin-1-yl)quinoxaline-6-carbonyl)phenyl)benzamide] showed an IC50 in experiment [1] of less than 1 µM.

`O=C(Nc1ccc(C(=O)c2ccc3ncc(N4CCNCC4)nc3c2)c(F)c1)c1cccc(C(F)(F)F)c1` [Compound C42, N-(3-fluoro-4-(3-(piperazin-1-yl)quinoxaline-6-carbonyl)phenyl)-3-(trifluoromethyl)benzamide] showed an IC50 in experiment [1] of 1 to 5 µM.

In turn, `O=C(Nc1ccc(C(=O)c2ccc3ncc(N4CCNCC4)nc3c2)c(F)c1)c1ccc(Cl)c(C(F)(F)F)c1` [Compound C43, 4-chloro-N-(3-fluoro-4-(3-(piperazin-1-yl)quinoxaline-6-carbonyl)phenyl)-3-(trifluoromethyl)benzamide] came in with an IC50 in experiment [1] of less than 1 µM.

These data come from US10047059B2, “Substituted quinoxalines for inhibiting kinase activity” (NEUPHARMA, INC., priority 2012, dated 2018).
